Results from BigSolDB 2.1.

Details: in water

O=C1NC(=O)c2cc([N+](=O)[O-])ccc21
Details	solubility (mole fraction)
278.15 K	0.000105
283.15 K	0.000142
288.15 K	0.000187
293.15 K	0.000248
298.15 K	0.000324
303.15 K	0.000415
308.15 K	0.000537
313.15 K	0.000684
318.15 K	0.00086
323.15 K	0.00109
